Source: US20160160179A1, “METHOD FOR OBTAINING A POPULATION OF ISOLATED BRITE ADIPOCYTES” (INSERM (INSTITUT NATIONAL DE LA SANTÉ ET DE LA RECHERCHE …, priority 2013, published 2016)
Counter-ions that a name gives are not always drawn.

Tests used:
[1] = system: whole native progenitor cells (CD45−/CD34+/CD31−); assay: In vitro adipogenesis of whole native progenitor cells; type: cell-based, human; settings: 0.25 mM IBMX for 3 days, ITTC medium until day 10
Description: (§1) An immuno-selection/depletion approach was developed to obtain the native progenitor cell subsets starting from 50.10^6 to 150.10^6 SVF cells. The total progenitor cell population (CD34+/CD31− cells) was obtained in two steps: immune cells were first removed using CD45 positive cell-depletion step (CD45-depletion kit from Stemcell Technologies, Grenoble, France) followed by endothelial cell depletion step using an anti-CD31-depletion kit (R&D Systems, Lille, France) according to manufacturer's protocol. To further isolate the distinct progenitor cell subsets, the Mscal-positive cells were selected from the CD45−/CD31− cells, the −/CD271 positive cells were selected from the CD45−/CD31−/MSCA1− cells and the CD45−/CD31−/MSCA1−/CD271− (−/−) cells using CD34 immuno-magnetic selection kits (MSCA1+, CD271+ and CD34+ immuno-magnetic selection kits were from Miltenyi Biotec, Paris, France). The purity of each fraction was assessed after selection by flow cytometry analyses.

[2] = system: MSCA1+ cells (CD45−/CD34+/CD31−/CD271+/MSCA1+); assay: In vitro adipogenesis of the immunoselected MSCA1+ cell subset; type: cell-based, human; settings: IBMX stimulation
Description: as §1
(§2) Total RNAs were extracted using the RNeasy kit (Qiagen). […] RNAs were reverse-transcribed using Superscript® II kit (Invitrogen). TaqMan® Primers are listed in supplemental data Table 1.
Cells or small pieces of whole AT were fixed (paraformaldehyde 4%, room temperature for 15 min for cultured cells and up to 1 h for whole AT). […]

[3] = system: native human AT progenitor cells
Method: 120 000 cells were plated per cm^2 in growth medium (ECGM MV) supplemented with […] penicillin-streptomycin. 48 h after seeding, medium was changed into basal defined medium (ECBM) supplemented with […] penicillin-streptomycin, 66 nmol/L Insulin, 1 nmol/L Triiodothyronine, 0.1 μg/ml human Transferrin, 100 nmol/L Cortisol (ITTC, Control) supplemented or not with 3 μmol/L Rosiglitazone or 0.25 mM isobuthylmethaxantine (IBMX). After 3 days, medium was changed and cells were maintained in ITTC medium until day 10. Cells were fixed (paraformaldehyde 4%, 15 min, RT), and stained with Bodipy 493/503 (10 μg/ml, 15 min, Invitrogen) and Hoechst 33342 (5 μg/ml, 15 min, Invitrogen). Stainings were observed by inversed fluorescent microscope (Nikon Eclipse TE300) and 5 pictures were randomly taken under 20X objective (numeric camera and acquisition software NIS-Elements 2.5 BR, Nikon®). Differentiation area (Bodipy stained area, μm^2) was measured with ImageJ software and normalized by nuclei cell number in order to obtain the differentiation area (μm^2) per cell. Total RNAs were extracted using the RNeasy kit (Qiagen). The RNA concentration was measured by fluorimetric assay (Ribogreen, Invitrogen). RNAs were reverse-transcribed using Superscript® II kit (Invitrogen). TaqMan® Primers are listed in supplemental data Table 1. The amplification reaction was done in duplicate on 15 ng of the cDNA samples in a final volume of 20 μL in 96-well reaction plates (Applied Biosystems) in a GeneAmp 7500 detection system (Applied Biosystems). All reactions were performed under the same conditions: 50° C. for 2 minutes, 95° C. for 10 minutes, 40 cycles of 95° C. for 15 seconds, and 60° C. for 1 minute. Results were analyzed with the GeneAmp 7500 software and all values were normalised to 18S rRNA levels. Progenitor cells were cultured under adipogenic conditions with or without 50 μM or 500 μM of tetramisole hydrochloride, an alkaline phosphatase inhibitor. After 3 to 10 days, Bodipy staining was performed or RNAs extracted. Progenitor cells were seeded at the density of 90000/cm2 cells in 12 well-plates. After 24 hours, cells were transfected with 500 ng/mL of MISSION® esiRNA against tissue non-specific alkaline phosphatase (MSCA1) or GFP as negative control with 1 μL of lipofectamine® 2000 (invitrogen) in 1 mL of basal medium. After 12 hours, medium was removed and cells were rinsed once with PBS and cultured under adipogenic conditions for 3 to 10 days and RNAs were extracted.

[4] = system: Progenitor cells; assay: BMP7 adipogenic culture protocol; type: cell-based, human; settings: 50 ng/mL for 2 days, then 9 days in ITTC
Method: Progenitor cells were treated during 2 days with recombinant human BMP7 (50 ng/mL) then 9 days in adipogenic medium (ITTC).
MSCA1 gene expression and activity were measured. UCP1 gene expression was measured by RT-PCR.
as §2

CC(C)Cn1c(=O)n(C)c(=O)c2[nH]cnc21 [IBMX, 3-isobutyl-1-methylxanthine]
differentiation [1]: only slightly and insignificantly increased
differentiation (lipid laden cells) ([2]; 0.25 mM): marked appearance of lipid laden cells
UCP1-positive cell clusters ([2]; immunofluorescence): only found in cells from the MSCA1+ subset

c1ccc(C2CN3CCSC3=N2)cc1 (stereo not shown) [tetramisole, tetramisole hydrochloride]
total number of nucleated cells ([3]; 50 μM or 500 μM, adipogenic culture conditions): without altering
adipocyte differentiation ([3]; 50 μM or 500 μM, adipogenic culture conditions, Bodipy staining): concentration-dependent decrease
expression of adipogenic and adipocyte-specific genes after the commitment period ([3]; day 3): No statistically significant effect
expression of adipogenic transcription factors PPARγ2, CHREBP, C/EBPα and adipocyte-specific genes LPL, GPDH, PLIN1 ([3]; day 10): decreased

B1: BMP7: recombinant human BMP7, a Bone Morphogenetic Protein (protein, UniProt P18075 293-431, looked up)
Bone morphogenetic protein 7: STGSKQRSQNRSKTPKNQEALRMANVAENSSSDQRQACKKHELYVSFRDLGWQDWIIAPEGYAAYYCEGECAFPLNSYMNATNHAIVQTLVHFINPETVPKPCCAPTQLNAISVLYFDDSSNVILKKYRNMVVRACGCH
activity of the MSCA1 gene [4]: significantly increased
expression of the MSCA1 gene [4]: significantly increased
UCP1 gene expression ([4]; RT-PCR): significant increase
